Experimental data: patent US20110150873A1, “ANTI-INFLAMMATORY COMPOSITIONS AND COMBINATIONS” (CAMBRIDGE ENTERPRISE LIMITED, priority 2007, published 2011)
“Also recorded” adds a separate entry of the source.

Tests used:
LPS-induced serum TNF-α = assay: sub-lethal LPS-induced endotoxemia assay; format: in vivo, adult female CD-1 mice; conditions: for % Inhibition of LPS-induced serum TNF-α, Mean: oral route, six mice
Description: In this assay, mice are given a non-specific pro-inflammatory challenge using bacterial endotoxin (LPS), and the extent of the systemic inflammatory response (measured by serum levels of the central pro-inflammatory cytokine TNF-α, which is essentially absent from the blood under normal conditions, but is rapidly elevated in response to a wide range of inflammatory stimuli). We have selected this model, even though it is not, itself, a particularly close model of any human inflammatory disease condition, because TNF-α is known to be important in very many diseases (including rheumatoid arthritis, autoimmune disorders, Crohn's Disease, atherosclerosis, asthma and many more). Consequently, agents which suppress TNF-α production are already used clinically (e.g. etanercept (Enbrel™) and other anti-TNF-α antibody products, such as infliximab (Remicade™) and adalimumab (Humira™)) to treat a wide range of such diseases.
Mice (adult female CD-1 mice in groups of 6) were pretreated with various doses of each compound, either by the subcutaneous route 30 mins prior to LPS challenge, or by the oral route (via gavage) 60 mins prior to LPS. The mice were then challenged with an intraperitoneal injection of 750 μg of bacterial LPS and sacrificed 2 hours later. Serum was prepared from a terminal bleed by cardiac puncture, and the concentration of TNF-α determined by ELISA (R&D Systems). In each experiment, a group of 6 mice receive no LPS to act as a negative control, and a second group receive only LPS (with no candidate inhibitor). The level of TNF-α in serum from these animals which received LPS without drug pre-treatment is arbitrarily set to 100% (and is typically of the order of 6,000 pg/ml, compared with levels of <10 pg/ml among the negative control group, which received no LPS).

[1] = system: serum growth hormone (GH); assay: ovalbumin-sensitised rat model of asthma: serum growth hormone ELISA (side-effect measure); format: in vivo, Brown Norway rats
Method: (§1) Briefly, adult Brown Norway rats (200-300 g body weight; n=10 per group) are sensitised by a single interperitoneal injection of 0.1 mg Ovalbumin on day 0. Each rat then receives an intratracheal challenge with a solution of 1% ovalbumin (w/v) on day 8, and with 2% ovalbumin (w/v) on days 15, 18 and 21. The animals are then sacrificed 3 hours after the final challenge on day 21. Note that ovalbumin (Sigma; purest available grade) can be made endotoxin-free by passage over EndoTrap Red columns (purchased from Cambrex; used in accordance with the manufacturer's instructions), and the endotoxin level confirmed as <5 EU/mg protein using the LAL assay (QCL-1000; Cambrex; performed in accordance with the manufacturer's instructions; 1 mg of standard endotoxin contains ˜900,000 EU/mg). This ensures that the lung inflammation response results from the allergic response to the ovalbumin protein, rather than from unintended LPS stimulation which occurs even with the highest purity grade commercial ovalbumin preparations, and therefore ensures the model more closely represents the underlying molecular pathology of human asthma.
One group of mice (acting as a baseline control) receives no ovalbumin challenges, but are otherwise treated identically. A second group (positive control) receives the challenges but no drug treatment. Further groups are treated identically, but receive daily dosage with: (a) (S)-3-(2′,2′-dimethylpropanoylamino)-tetrahydropyridin-2-one (B′) at a dose of either 0.3 mg/kg or 0.03 mg/kg via oral gavage from day 8 until day 21, with dosage being given 1 hr prior to any subsequent challenge with ovalbumin made on the same day. […]
Serum is also prepared from a terminal bleed, and levels of GH are measured using a commercially available ELISA (Diagnostic Systems Laboratories, Inc; DSLabs) in accordance with the manufacturer's instructions.

[2] = system: Th1/Th2 polarisation axis; assay: ovalbumin-sensitised rat model of asthma: splenocyte Th1/Th2 ratio by flow cytometry; format: in vivo, Brown Norway rats; conditions: low dose B′ (0.03 mg/kg)
Method: as §1, with “asthma. […]” for “asthma.”
The spleen is also removed from each mouse and placed in RPMI+10% FCS+antibiotics. […] The resulting cell suspensions are then centrifuged (328 g; 5 mins) and washed in RPMI+10% FCS+antibiotics, before being resuspended in fresh media and counted using a haemocytometer. […]

[3] = system: leukocyte recruitment into the lung; assay: ovalbumin-sensitised rat model of asthma: total BAL leukocyte count; format: in vivo, Brown Norway rats; conditions: low dose alone: 0.03 mg/kg B′ or 0.01 mg/kg DMX, daily oral
Method: as §1, with “This ensures that the lung inflammation response results from the allergic response to the ovalbumin protein, rather than from unintended LPS stimulation which occurs even with the highest purity grade commercial ovalbumin preparations, and therefore ensures the model more closely represents the underlying molecular pathology of human asthma.” left out
On sacrifice, total lung leukocyate recruitment is assessed by performing a broncheoalveolar lavage (BAL) using 4 lots of 3 ml sterile phosphate-buffered saline introduced through a tracheal cannula. For each animal, the BAL washes are combined, and the total cell population counted (using a haemocytometer).

(S)-3-(adamantylamino)-caprolactam [B]
% Inhibition of LPS-induced serum TNF-α, Mean (LPS-induced serum TNF-α; Experiment 1, B 3 × 10^−6 mg): 34%
% Inhibition of LPS-induced serum TNF-α, Mean (LPS-induced serum TNF-α; Experiment 1): 15%
% Inhibition of LPS-induced serum TNF-α, Mean (LPS-induced serum TNF-α; Experiment 2, B 3 × 10^−6 mg): 54%
% Inhibition of LPS-induced serum TNF-α, Mean (LPS-induced serum TNF-α; Experiment 2): 34%
anti-inflammatory effect on the TNF-α response (LPS-induced serum TNF-α; administered separately: 0.3 μg per mouse DMX or 0.1 μg/mouse B): minor anti-inflammatory effect which was not statistically significant in every experiment

C[C@@H]1C[C@H]2[C@@H]3CCC4=CC(=O)C=C[C@]4(C)[C@@]3(F)[C@@H](O)C[C@]2(C)[C@@]1(O)C(=O)CO [DMX, Dexamethasone, reference compound]
% Inhibition of LPS-induced serum TNF-α, Mean (LPS-induced serum TNF-α; Experiment 1, DMX 3 × 10^−7 mg): 19%
% Inhibition of LPS-induced serum TNF-α, Mean (LPS-induced serum TNF-α; Experiment 2, DMX 3 × 10^−7 mg): 37%
suppression of serum GH levels ([1]; high dose DMX (1 mg/kg)): ≤ 80%
suppression of serum GH levels ([1]; low dose DMX (0.01 mg/kg)): approximately 10%

CC(C)(C)C(=O)N[C@H]1CCCNC1=O [B′, (S)-3-(2′,2′-dimethylpropanoylamino)-tetrahydropyridin-2-one]
re-balancing of the Th1/Th2 axis [2]: statistically significant Th1 shift
effect on leukocyte accumulation in the lung [3]: ineffective; also recorded: neither compound, when administered alone, has a statistically significant effect
significant suppression of serum GH levels ([1]; B′ alone): not
